In PMC2787200 (Organic letters, 2008):

Target: ERα (Homo sapiens, UniProt P03372)
Experiment: competitive radiometric binding assay with tritiated estradiol

Chain of ERα (P03372 whole entry): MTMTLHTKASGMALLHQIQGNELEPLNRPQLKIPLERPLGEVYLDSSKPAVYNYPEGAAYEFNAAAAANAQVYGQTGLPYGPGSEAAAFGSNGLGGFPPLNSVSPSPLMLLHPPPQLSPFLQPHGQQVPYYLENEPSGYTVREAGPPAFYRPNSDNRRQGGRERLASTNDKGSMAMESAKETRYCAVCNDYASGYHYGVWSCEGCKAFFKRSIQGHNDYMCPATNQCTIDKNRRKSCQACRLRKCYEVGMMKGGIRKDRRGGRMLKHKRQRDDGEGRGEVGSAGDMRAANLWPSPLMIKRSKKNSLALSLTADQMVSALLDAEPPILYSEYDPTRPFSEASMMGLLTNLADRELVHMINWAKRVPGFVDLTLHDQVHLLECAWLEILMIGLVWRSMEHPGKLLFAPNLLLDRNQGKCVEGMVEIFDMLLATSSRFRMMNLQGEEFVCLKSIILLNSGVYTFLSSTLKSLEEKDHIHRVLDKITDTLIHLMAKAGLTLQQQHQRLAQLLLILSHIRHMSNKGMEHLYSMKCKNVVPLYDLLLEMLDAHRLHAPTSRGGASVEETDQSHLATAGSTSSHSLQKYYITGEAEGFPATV

Substance: Cyclofenil-conjugated SNAPFL [compound 2]
- Ki: ~6 nM
